Structures are written as SMILES.

Data set [1] is described as follows: Sweetness tasting by a panel of five people, compared with sucrose solution. The procedure:
Iso-rebaudioside A from the x-ray crystallography sample of Example 3 was dissolved in water at a concentration of 1000 ppm, and was found by a panel of five people to have a sweetness intensity similar to that of a 7% sucrose solution; therefore its sweetness potency was estimated to be 70 times that of sucrose.

A short description of data set [2]: Stability/degradation in aqueous citric acid or citrate buffer under heat, followed by HPLC. The data set is classed as physicochemical. The procedure: […] reactions were set up under identical conditions as in Example 3 except for temperatures: 43° C., 65° C., 75° C., 85° C., and 90° C. reactions were set up and followed by HPLC-MS or UV (210 nm) detection.
Two studies were performed on the pH dependency of the synthesis of iso-rebaudioside A (Cmpd X) from rebaudioside A (Reb A). Rebaudioside A was dissolved at the same concentration in a series of aqueous citric acid solutions, each having a different pH. The solutions were heated to 43° C. for 11 weeks. One study was performed with solutions at pH 2.0, 4.0, and 7.0. The other study was performed with solutions at pH 2.5, 3.0, and 3.5. Results of the two studies are shown in FIGS. 17 and 18, respectively, wherein Reb A stands for rebaudioside A and Cmpd X stands for iso-rebaudioside A. In FIG. 17, the concentration of iso-rebaudioside A at pH 2 peaks at week 9 and decreases afterwards.

The conditions of data set [3]: cited from earlier work; for stability under acidic conditions at 60° C.: pH 2.4 to 2.6, 60° C.; for stability under acidic conditions at 100° C.: pH 2.4 to 2.6, 100° C., yields hydrolysis byproducts.

For `CC1=CC23CCC4C(C)(C(=O)OC5OC(CO)C(O)C(O)C5O)CCCC4(C)C2CCC1(OC1OC(CO)C(O)C(OC2OC(CO)C(O)C(O)C2O)C1OC1OC(CO)C(O)C(O)C1O)C3` (stereo not shown) [iso-rebaudioside A], the “sweetness intensity, equivalent sucrose solution” value in data set [1] (1000 ppm in water, panel of five people) is roughly 7 % sucrose solution. Also, in data set [1] (estimated from 1000 ppm vs 7% sucrose), the “sweetness potency relative to sucrose” value was 70 times that of sucrose. In data set [2] (pH 2), the “degradation in acidic solution” value was “degraded/hydrolyzed into other steviol glycoside isomers” and the “time of peak concentration before decrease (degradation)” value is 9 week.
For the compound `C=C1C[C@@]23CC[C@H]4[C@@](C)(CCC[C@@]4(C)C(=O)O[C@@H]4O[C@H](CO)[C@@H](O)[C@H](O)[C@H]4O)[C@@H]2CC[C@]1(O[C@@H]1O[C@H](CO)[C@@H](O)[C@H](O[C@@H]2O[C@H](CO)[C@@H](O)[C@H](O)[C@H]2O)[C@H]1O[C@@H]1O[C@H](CO)[C@@H](O)[C@H](O)[C@H]1O)C3` [rebaudioside A], the “degradation in acidic solution” value in data set [2] (aqueous citric acid pH 2, 43° C., after week 9) is listed as “continues to decrease after week 9”. Further, the “hydrolysis at elevated temperatures” value in data set [2] (citrate buffer pH 2, 43° C. to 90° C., HPLC-MS) is recorded as “extensive hydrolysis occurred”. Moreover, in data set [3], the “stability under acidic conditions at 60° C.” value is on record as “quite stable” and the “stability under acidic conditions at 100° C.” value is “undergo drastic changes”.
For the compound `C=C1C[C@@]23CC[C@H]4[C@@](C)(CCC[C@@]4(C)C(=O)O[C@@H]4O[C@H](CO)[C@@H](O)[C@H](O)[C@H]4O)[C@@H]2CC[C@]1(O[C@@H]1O[C@H](CO)[C@@H](O)[C@H](O)[C@H]1O[C@@H]1O[C@H](CO)[C@@H](O)[C@H](O)[C@H]1O)C3` [stevioside], in data set [3], the “stability under acidic conditions at 60° C.” value is listed as “quite stable” and the “stability under acidic conditions at 100° C.” value was “undergo drastic changes”.

The record behind these values is patent US7964232B2, “Steviol glycoside isomers” (PepsiCo, Inc., priority 2007, dated 2011).
